We go through seven molecules from US4690933A, “Pyridylvinyl-1H tetrazole having antihistamine activity” (priority 1984, dated 1987).

Like-named read-outs stand apart in the source and are kept apart here.

By pA2 is commonly meant a measure of antagonist potency on a negative log scale.

For data set [1], the target named is T1, histamine; longitudinal muscle from the intact ileum of guinea-pigs (Cavia porcellus, UniProt P31389).
T1 construct: The longitudinal muscle was isolated from the intact ileum of guinea-pigs; from tissue; host or cells: longitudinal muscle of the ileum of guinea-pigs (Harley, male 250-400 g)
Kind of data set: In vitro antihistaminic activity: histamine concentration-response curves, isolated guinea-pig ileum longitudinal muscle (Schild plot). The format is cell-based. To be noted: negative log of the concentration of antagonist which shifts the control histamine concentration-response curve 2X to the right, one hour incubation with test compound, 60 min. How it is done: A.Invitro antihistaminic activity: The longitudinal muscle was isolated from the intact ileum of guinea-pigs (Harley, male 250-400 g) and placed in an organ bath under 300 mg tension. After one hour of equilibration, cumulative concentration-response curves (Van Rossum, J. M., Arch. Int. Pharmacodyn. Ther. 143 299-330, 1963) to histamine wee obtained. Following washing, the tissues were incubated for one hour with the test compound and then a second histamine concentration-response curve was run. Shifts to the right of the agonist concentration-response curve produced by the antagonists were used to construct Schild plots (Arunlakshana, O. and Schild, H. O., Br. J. Pharmacol: 14, 48-58, 1959). Regression of Log (dr-1) on Log/B/, where dr is an equiactive response in the presence and absence of antagonist and /B/ is the molar concentration of antagonist, allowed an estimate of pA2, i.e. the negative log of the concentration of antagonist which shifts the control histamine concentration-response curve 2X to the right.
The antihistaminic activities of compounds of the present invention are detailed in table A below.

The conditions of data set [2]: cited from earlier work.
For data set [3] the following is noted: background statement, no test described; cited from earlier work.
For data set [4] the following is noted: cited from earlier work. The source holds these as a separate data set.

T1 sequence (P31389 whole entry): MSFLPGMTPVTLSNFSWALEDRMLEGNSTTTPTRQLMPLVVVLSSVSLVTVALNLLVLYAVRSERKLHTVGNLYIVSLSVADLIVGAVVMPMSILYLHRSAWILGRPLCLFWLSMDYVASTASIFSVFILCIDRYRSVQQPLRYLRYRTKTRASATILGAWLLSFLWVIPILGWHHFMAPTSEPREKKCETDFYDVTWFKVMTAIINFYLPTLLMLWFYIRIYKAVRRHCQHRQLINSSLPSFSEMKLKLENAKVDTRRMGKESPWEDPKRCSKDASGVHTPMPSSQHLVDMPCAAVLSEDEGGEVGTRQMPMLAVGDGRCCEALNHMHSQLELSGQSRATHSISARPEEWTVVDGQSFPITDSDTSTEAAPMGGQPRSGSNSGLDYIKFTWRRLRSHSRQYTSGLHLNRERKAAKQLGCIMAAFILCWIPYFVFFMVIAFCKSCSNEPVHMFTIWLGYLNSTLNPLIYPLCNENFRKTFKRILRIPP

Turning to `O=S(=O)(O)c1cccc(/C(=C/CN2CCCC2)c2ccccc2)c1` [Example 2, (E)-3-(1-phenyl-3-pyrrolidinoprop-1-enyl)-benzenesulphonic Acid], the pA2 in data set [1] was determined as 7.1.

With `CC(CN1c2ccccc2Sc2ccccc21)N(C)C` (stereo not drawn) [promethazine], the sedation or drowsiness entry in data set [2] (in some patients) is “cause sedation or drowsiness in some patients”.

As to `Cc1ccc(/C(=C\CN2CCCC2)c2ccccn2)cc1` [triprolidine, (E)-1-(4-methylphenyl)-1-(2-pyridyl)-3-pyrrolidinoprop-1-ene], in data set [3], the antihistamine activity result is “one of the most potent antihistamines available”. For the same molecule, in data set [4], the metabolism in man entry is on record as “metabolized in man to (E)-1-(4-carboxyphenyl)-1-(2-pyridyl)-3-pyrrolidinoprop-1-ene”. Also, the sedation or drowsiness result in data set [2] (human, in vivo) is recorded as “cause sedation or drowsiness in some patients”.

Regarding `O=C(O)c1ccc(/C(=C\CN2CCCC2)c2ccccn2)cc1` [(E)-1-(4-carboxyphenyl)-1-(2-pyridyl)-3-pyrrolidinoprop-1-ene], the antihistamine activity entry in data set [3] is “little or no antihistamine activity”.

As to `O=S(=O)(O)c1cccc(C(CCN2CCCC2)c2ccccc2)c1` (stereo not drawn) [Example 3, 3-(1-phenyl-3-pyrrolidinopropyl)benzenesulphonic acid], in data set [1], the pA2 worked out at 7.3.

In the case of `COc1ccc(CN(CCN(C)C)c2ccccn2)cc1` [pyrilamine], the sedation or drowsiness entry in data set [2] (human, in vivo) is “cause sedation or drowsiness in some patients”.

As to `Cc1ccc(/C(=C\CN2CCCC2)c2cccc(/C=C/c3nnn[nH]3)n2)cc1` [Example 1, 5-(E-6-[3-Pyrrolidino-1-(4-tolyl)prop-1E-enyl]-2-pyridylvinyl)-1H-tetrazole], the pA2 in data set [1] is on record as 8.7.
